IC50 data for two compounds are collected here from patent publication US20040146519A1, “Inducing cellular immune responses to carcinoembryonic antigen using peptide and nucleic acid compositions” (priority 2002, published 2004).

The target of assay [1] is HLA-DRB1*0301 (DR3) (Homo sapiens, UniProt P01903+P01911, A100K/A102G/A103R/A169T/F55Y/I96L/K41T/L162R/M171V/P40S/Q125H/Q178H/Q39Y/R42S/S66N/T106N/T262R/W38E/Y61H). Briefly: HLA class II binding assay, DRB1*0301 (DR3). The settings on record: read-out: DR3 binding affinity.
Sequence of HLA-DRB1*0301 (DR3) (P01903 26-254 limits assumed, other chains not shown): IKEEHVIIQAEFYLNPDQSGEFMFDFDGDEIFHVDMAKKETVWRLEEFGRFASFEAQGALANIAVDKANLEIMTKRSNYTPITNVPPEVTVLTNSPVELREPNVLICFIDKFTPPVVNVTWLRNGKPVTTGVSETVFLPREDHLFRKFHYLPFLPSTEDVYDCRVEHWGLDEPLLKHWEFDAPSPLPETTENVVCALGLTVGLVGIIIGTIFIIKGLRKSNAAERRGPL
Procedure: Conversely, The DR supertype cross-reactive binding peptides were also tested for DR3 binding capacity.
Assay [2] addresses HLA-A*0301 (Homo sapiens, UniProt P04439). Briefly: HLA class I binding assay, purified HLA-A*0301. The conditions noted are these: Table XXIII, binding affinity.
In assay [3] the target is HLA-A*1101 (Homo sapiens, UniProt P04439, A114D/D185E/E176A/F33Y/L180Q/S129P/T187R). In words: HLA class I binding assay, purified HLA-A*1101. The conditions noted are these: Table XXIII, binding affinity.
Sequence of HLA-A*1101 (P04439 25-365 limits assumed, stated change not applied): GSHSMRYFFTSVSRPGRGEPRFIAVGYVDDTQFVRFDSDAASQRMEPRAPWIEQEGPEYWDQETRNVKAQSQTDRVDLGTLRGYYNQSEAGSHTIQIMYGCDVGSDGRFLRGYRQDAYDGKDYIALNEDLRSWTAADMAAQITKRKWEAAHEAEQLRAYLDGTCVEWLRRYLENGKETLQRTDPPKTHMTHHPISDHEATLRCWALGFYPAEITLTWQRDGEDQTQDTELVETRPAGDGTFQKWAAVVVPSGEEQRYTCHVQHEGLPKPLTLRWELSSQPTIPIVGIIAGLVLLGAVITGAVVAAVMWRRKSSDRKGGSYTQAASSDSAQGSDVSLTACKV
For assay [4], the target named is HLA-A*3301 (Homo sapiens, UniProt P04439, A270S/D185E/E176V/E277Q/E87N/F33T/G231S/H175R/I121M/I218V/I322F/K168Q/K210R/L300P/L318F/M331R/P217A/Q86R/Q94H/R138Q/T323A/T345S/T97I/V358M/Y195H). Briefly: HLA class I binding assay, purified HLA-A*3301. The settings on record: Table XXIII, binding affinity.
In assay [5] the target is HLA-A*6801 (Homo sapiens, UniProt P04439, A269V/D185E/E176V/E277Q/E87N/F33Y/G231S/I121M/I166T/I218V/L180W/L300P/L318F/N151K/P208A/P217A/Q86R/R169H/T345S). In words: HLA class I binding assay, purified HLA-A*6801. The settings on record: Table XXIII, binding affinity.

With `CC[C@H](C)[C@H](NC(=O)[C@@H](NC(=O)[C@H](Cc1c[nH]cn1)NC(=O)[C@@H](N)CC(C)C)C(C)C)C(=O)N[C@@H](CCCCN)C(=O)N[C@@H](CO)C(=O)N[C@@H](CC(=O)O)C(=O)N[C@@H](CC(C)C)C(=O)N[C@H](C(=O)N[C@@H](CC(N)=O)C(=O)N[C@@H](CCC(=O)O)C(=O)N[C@@H](CCC(=O)O)C(=O)N[C@@H](C)C(=O)N[C@H](C(=O)NCC(=O)O)[C@@H](C)O)C(C)C` [CEA.122], the IC50 in assay [1] is 2310 nM.
As for `CC(C)[C@H](NC(=O)[C@@H](N)[C@@H](C)O)C(=O)N[C@@H](CO)C(=O)N1CCC[C@H]1C(=O)N[C@@H](CO)C(=O)N[C@@H](Cc1ccc(O)cc1)C(=O)N[C@H](C(=O)N[C@@H](Cc1ccc(O)cc1)C(=O)N[C@@H](Cc1ccc(O)cc1)C(=O)N[C@@H](CCCNC(=N)N)C(=O)O)[C@@H](C)O` [CEA.419.V2], the IC50 in assay [2] turned out to be 2340 nM; in assay [3], 3 µM; in assay [4], 264 nM; in assay [5], 8.6 nM.
